Data from patent US20090169643A1, “Composition for Enhancing Immune Function” (priority 2006, published 2009).

Key:
[1] = system: human peripheral mononuclear cells; assay: Metabolic activity of human peripheral mononuclear cells (WST-1 formazan, 48 h culture), Test Example 3; type: cell-based
Procedure: In the same manner as in Test Example 1, the synergic effect of nigerooligosaccharide and zinc on the metabolic activity of human peripheral mononuclear cells was assessed using nigerooligosaccharide and zinc. After 20 ml of blood collected from each healthy male adult was diluted 2-fold with calcium- and magnesium-free phosphate buffered saline (PBS), the diluted blood sample was overlaid onto 30 ml of a Ficoll-Paque PLUS (GE Healthcare Bio-Sciences) layer so gently as not to disturb the interface, followed by centrifugation at 400×g at 20° C. for 40 minutes. After the centrifugation, lymphocytes and monocytes present in the intermediate layer were carefully collected in a Pasteur pipette. The collected cell suspension was washed with 10-fold PBS twice. After the obtained mononuclear cells were counted with an automatic blood cell counter (Sysmex Corporation: type CDA-500), the suspension was adjusted to a concentration of 2×10^6 cells/ml in RPMI1640 culture medium supplemented with 10% fetal bovine serum, streptomycin and penicillin, and plated in a volume of 50 μl per well into a 96-well culture plate. […] The formazan concentration was determined from absorbance at a measurement wavelength of 415 nm (reference wavelength of 630 nm) using a microplate reader (Corona Electric Co., Ltd.: Type MTP-32).
The values in Table 3 represent absorbance at 415 nm as means±SD of triplicate wells. […]

[2] = system: spleen cell suspension of immunocompetent cells; assay: Metabolic activity of mouse immunocompetent cells (WST-1 formazan, 48 h culture), Test Example 1; type: cell-based, Balb/c mice
Description: Zinc was used in the form of zinc sulfate dissolved in distilled water. Spleens were aseptically harvested from ten-week-old female Balb/c mice, teased in RPMI1640 culture medium (GIBCO) supplemented with streptomycin and penicillin (SIGMA), and then passed through a #200 mesh screen to obtain spleen cell suspension of immunocompetent cells. After counting the cells in the spleen cell suspension with an automatic blood cell counter (Sysmex Corporation: type CDA-500), the suspension was adjusted to a concentration of 1×10^7 cells/ml in the above-mentioned RPMI1640 culture medium and plated in a volume of 50 μl per well into a 96-well culture plate. Concanavalin A (SIGMA), a cell-growth stimulating factor, was dissolved in the above-mentioned RPMI1640 culture medium, and 50 μl of the Concanavalin A solution was added to the cell suspension in each well to give a final concentration of 2.0 μg/ml. Additionally, zinc and nigerooligosaccharide were separately dissolved in the above-mentioned RPMI1640 culture medium. […] The formazan concentration was determined from absorbance at a measurement wavelength of 415 nm (reference wavelength of 630 nm) using a microplate reader (Corona Electric Co., Ltd.: Type MTP-32). The values in Table 1 represent absorbance at 415 nm as means±SD of triplicate wells. […]

[3] = system: spleen cell suspension of immunocompetent cells; assay: Metabolic activity of mouse immunocompetent cells during prolonged culture (WST-1 formazan, 144 h), Test Example 2; type: cell-based, Balb/c mice; details: for absorbance at 415 nm (formazan, index of metabolic activity): nigerooligosaccharide 0 ng/ml, Concanavalin A 0.4 μl/ml, 144 hours, mean of triplicate to hexylicate wells
Procedure: In this Test Example, the effect of the combined use of nigerooligosaccharide and zinc on the metabolic activity of immunocompetent cells during prolonged culture was assessed using nigerooligosaccharide and zinc in the same manner as Test Example 1. Spleens were aseptically harvested from ten-week-old female Balb/c mice, teased in RPMI1640 culture medium (GIBCO) supplemented with streptomycin and penicillin (SIGMA), and then passed through a #200 mesh screen to obtain spleen cell suspension of immunocompetent cells. After counting the cells in the spleen cell suspension with an automatic blood cell counter (Sysmex Corporation: type CDA-500), the suspension was adjusted to a concentration of 1×10^7 cells/ml in the above-mentioned RPMI1640 culture medium and plated in a volume of 50 μl per well into a 96-well culture plate. Concanavalin A (SIGMA), a cell-growth stimulating factor, was dissolved in the above-mentioned RPMI1640 culture medium, and 50 μl of the Concanavalin A solution was added to the cell suspension in each well to give a final concentration of 0.4 μl/ml. Additionally, zinc and nigerooligosaccharide were separately dissolved in the above-mentioned RPMI1640 culture medium. 50 μl of the zinc solution was added to each well to give a final concentration of 0, 1 or 2 ng/ml, and similarly, 50 μl of the nigerooligosaccharide solution was added to each well to give a final concentration of 0 or 1000 ng/ml. Thus-prepared immunocompetent cells were cultured in an incubator with 5% CO2 at 37° C. for 144 hours. […] The formazan concentration was determined from absorbance at a measurement wavelength of 415 nm (reference wavelength of 630 nm) using a microplate reader (Corona Electric Co., Ltd.: Type MTP-32).
The values in Table 2 represent absorbance at 415 nm as means of triplicate to hexylicate wells.

O=S(=O)([O-])[O-].[Zn+2] [zinc, zinc sulfate] was tested, and the “metabolic activity of human immunocompetent cells (in words)” value ([1]; summary of Table 3, proportion 1:1000) was “hardly raised the metabolic activity”, the “absorbance at 415 nm (formazan, index of metabolic activity)” value ([1]; zinc 10 ng/ml, nigerooligosaccharide 0 μg/ml, Concanavalin A 2.0 μg/ml, 48 hours, mean±SD of triplicate wells) was 0.348 ± 0.003 and the “metabolic activity of mouse immunocompetent cells (in words)” value ([2]; summary of Table 1, 48 hours culture) was “hardly raised the metabolic activity”. The “absorbance at 415 nm (formazan, index of metabolic activity)” value ([2]; zinc 1 ng/ml, nigerooligosaccharide 0 ng/ml, Concanavalin A 2.0 μg/ml, 48 hours, mean±SD of triplicate wells) was 0.815 ± 0.013, the “metabolic activity of mouse immunocompetent cells during prolonged culture (in words)” value ([3]; summary of Table 2, 144 hours culture, proportion 1:1000 or 1:500) was “hardly raised the metabolic activity” and the “absorbance at 415 nm (formazan, index of metabolic activity)” value ([3]; zinc 1 ng/ml) was 0.793. For the same compound, the “absorbance at 415 nm (formazan, index of metabolic activity)” value ([3]; zinc 2 ng/ml) was 0.786.
